Columns and labels:
[1] = system: FXR downstream bile acid transporters; test: Expression of FXR downstream bile acid transporters in liver (qPCR, Western blot); assay type: in vivo, mice; conditions: AP 200 mg/kg i.p.
Experimental: Total RNA from frozen livers of Vehicle, AP (200 mg/kg, i.p.), ANIT (50 mg/kg), and ANIT+AP (200 mg/kg, i.p.) groups was extracted using the Animal Total RNA Isolation Kit (FOREGENE, China). cDNA was synthesized using a Color Reverse Transcription Kit (EZBioscience, Roseville, CA, USA). qPCR was performed using SYBR green/Rox qPCR master mix (EZBioscience, Roseville, CA, USA), according to the manufacturer’s instruction. The expression of target genes was normalized to β-actin, and fold changes were calculated using 2^–ΔΔCT method. For bacterial identification, genomic DNA of fecal flora was isolated using the TIANamp Stool DNA Kit (TIANGEN, Beijing, China) and qPCR was performed. The relative abundance and expression of Desulfovibrio spp., D. piger and APS reductase were normalized to the amounts of total bacteria (16S). All primers were synthesized by Tsingke Biotechnology Co., Ltd. (Beijing, China) and were listed in Supplementary Table S1.
Liver tissue from Vehicle, AP (200 mg/kg, i.p.), ANIT (50 mg/kg), and ANIT+AP (200 mg/kg, i.p.) groups was homogenized in RIPA buffer (Thermo Scientific). […] The collected supernatant was quantified using BCA protein assay kit (Epizyme). […] To visualize the protein bands, the membrane was reacted with Immobilon Forte Western HRP (Millipore) substrate solution for 2 min and analyzed using Tanon5200 imager. […]

SULTs = test: AP incubation with liver S9 fraction (SULT-mediated metabolism); assay type: in vitro ADME, human, rat, mouse; conditions: HLS9, RLS9, MLS9 with PAPS, 37°C
Experimental: A sulfonate reaction system and incubation procedures were followed those of a previous study^4. Briefly, the reaction mixture (total volume 200 μL) consists of 10 μL enzymes (MLS9, RLS9 and HLS9 at different concentrations), 5 μL magnesium chloride (1 mM), 5 μL 3’-phosphoadenosine-5’-phosphosulfate (PAPS, 0.05 mM), 178 μL potassium phosphate (KPI) buffer (44.5 mM, pH 7.4) and 2 μL AP at different concentrations. The mixture was prepared in triplicates and incubated in a shaking water bath at 37°C for various durations. The reactions were terminated by the addition of acetonitrile solution.

D. piger = assay type: in vitro ADME, Desulfovibrio piger
Experimental: The cecum contents from mice were collected and mixed with sterilized anaerobic medium in a ratio of 1.0 g to 10 mL, with gentle agitation. After filtered, the mixed medium containing the intestinal flora was placed in an anaerobic environment and preincubated at 37°C for 30 min before use. Mixed medium with or without APS reductase inhibitor bromocriptine mesylate (20 μg/mL) was incubated with AP (10 μg/mL), while autoclaved mixed medium without APS reductase inhibitor served as the control. Incubation was performed in a shaking incubator at 37°C for 6 h, with strict maintenance of anaerobic condition throughout the process.[44] Similarly, D. piger (0.2 mL, 1 × 10^8 CFU/mL) with or without inhibitor, was incubated with AP for 0, 3, 6, and 12 h, with autoclaved D. piger without inhibitor serving as the control. […] And then samples were analyzed by UPLC-MS/MS to detect the concentrations of AP and APM. Concentrations of APS reductase and HSO3^− were also determined at the end of incubation.
For the determination of APS reductase concentration, the supernatant from mouse cecum contents and the D. piger strain were assessed using microorganism APS reductase elisa assay kit (Shanghai Senxingyan Biotechnology Co., Ltd., China), following the instructions provided with the kit. […] Subsequently, the absorbance of the resulting solutions was measured at a wavelength of 560 nm after 40 min.

[2] = system: NF-κB and JNK/MAPK pathways; test: RNA sequencing of liver: NF-κB and JNK/MAPK pathway genes; assay type: in vivo, mice; conditions: ANIT+AP (200 mg/kg, i.p.) vs ANIT
Experimental: RNA in liver tissue was isolated from mice treated with ANIT and ANIT+AP (200 mg/kg, i.p.) and purified by TRIzol (Invitrogen, CA). The isolated RNA was quantified using Qubit 2.0 (Thermo Fisher Scientific, USA) following the manufacturer’s protocol. Libraries were prepared using the NEBNext® UltraTM RNA Library Prep Kit for Illumina® (NEB, USA) and sequenced on a Novaseq 6000 (Illumina, USA) at Novogene’s deep sequencing facility. Mapped reads from each sample were assembled using StringTie (v1.3.3b) in a reference-based approach, and featureCounts was used to quantify mapped reads. Differential expression analysis of two conditions/groups was performed using the DESeq2 R package (1.20.0).

C=C1CC[C@@H]2[C@](C)(CO)[C@H](O)CC[C@@]2(C)[C@@H]1C/C=C1/C(=O)OC[C@H]1O [AP, Andrographolide]
expression of FXR downstream bile acid transporters (Mrp2, Mrp3, Mrp4, Oatp1, and Ntcp, except for Bsep, Ost-α and Ost-β) [1]: heightened the expression
production of the metabolite APM in SULT-mediated metabolism incubation system (SULTs): absence of detectable production
metabolism of AP into APM by D. piger in vitro (D. piger): time-dependent ability to metabolize AP into APM
clustering of NF-κB pathway genes and JNK/MAPK pathway genes [2]: no significant differences

— paper PMC11404609, “Gut microbiota-mediated C-sulfonate metabolism impairs the bioavailability and anti-cholestatic efficacy of andrographolide” (Gut Microbes, 2024)
